Measured values from US5747235A, “Silver halide light sensitive emulsion layer having enhanced photographic sensitivity” (Eastman Kodak Company, priority 1996, dated 1998).

Key:
[1] = Example 1: photographic speed and fog, 365 nm exposure, emulsion T-1; conditions: undyed; for S365: control=100
Experimental: This chemically sensitized emulsion was then used to prepare the experimental coating variations indicated in Table I. All of the experimental coating variations in Table I contained the hydroxybenzene 2,4-disulfocatechol (HB3) at a concentration of 13 mmole/mole Ag, added to the melt before the addition of any further addenda. The fragmentable electron donor compounds as indicated in Table I were added from an aqueous potassium bromide solution, or from a methanol solution, before additional water, gelatin, and surfactant were added to the emulsion melts.
(§1) For photographic evaluation, each of the coating strips was exposed for 0.1 sec to a 365 nm emission line of a Hg lamp filtered through a Kodak Wratten filter number 18A and a step wedge ranging in density from 0 to 4 density units in 0.2 density steps. The exposed film strips were developed for 6 min in Kodak Rapid X-ray Developer (KRX). S365, relative sensitivity at 365 nm, was evaluated at a density of 0.2 units above fog.

[2] = Example 6: spectral sensitivity, wedge spectrographic exposure, emulsion T-2; conditions: dye II 0.86 x10^-3, dyed control=100
Experimental: Additional testing was carried out to determine the response of the coatings described in Table III to a spectral exposure. Each of the coating strips was exposed for 0.1 sec on a wedge spectrographic instrument that covers the wavelength range from 400 to 750 nm. The instrument contains a tungsten light source and a step tablet ranging in density from 0 to 3 density units in 0.3 density steps. After developing exposed strips for 6 min in Kodak Rapid X-ray Developer (KRX), speed was read at 10 nm wavelength intervals at a density of 0.3 above fog. Correction for the instrument's variation in spectral irradiance with wavelength was done with a computer and a plot of log sensitivity vs. wavelength was generated. For this exposure, for each dye used, the relative sensitivity was set equal to 100 for the control coating with no fragmentable two-electron donor compound added.
(§2) The chemically sensitized AgErI tabular emulsion T-2 as described in Example 3 was used to prepare the experimental coating variations listed in Table VI, comparing fragmentable electron donating compounds PMT-1 and PMT-2 that contain a phenylmercaptotetrazole as the silver halide adsorbing group. For some of the experimental variations listed in Table VI the red sensitizing dye D-II was added from methanol solution to the emulsion at 40° C. after the chemical sensitization. The fragmentable electron donating compounds were then added to the emulsion and coatings prepared and tested for sensitivity at 365 nm and for spectral sensitivity as described in Example 3.

[3] = Example 6: photographic speed and fog, 365 nm exposure, emulsion T-2; conditions: for effect on dye desensitization: red dyed emulsion (D-II), 365 nm
Experimental: as §1
An AgBrI tabular silver halide emulsion (Emulsion T-2) was prepared containing 4.05% total I distributed such that the central portion of the emulsion grains contained 1.5% I and the perimeter area contained substantially higher I, as described by Chang et. al., U.S. Pat. No. 5,314,793. […] This emulsion was precipitated using deionized gelatin. The emulsion was sulfur sensitized by adding 8.5×10^-6 mole 1,3-dicarboxymethyl-1,3-dimethyl-2-thiourea /mole Ag at 40° C.; the temperature was then raised to 60° C. at a rate of 5° C./3 min and the emulsions held for 20 min before cooling to 40° C. The chemically sensitized emulsion was then used to prepare coatings containing the fragmentable two-electron donor compounds. All of the experimental coating variations in Table III contained the hydroxybenzene 2,4-disulfocatechol (HB3) at a concentration of 13 mmole/ mole Ag, added to the melt before the addition of any further addenda. Where present, the blue sensitizing dye D-I or the red sensitizing dye D-II were added from methanol solution to the emulsion at 40° C. after the chemical sensitization and disulfocatechol addition. The fragmentable two-electron donor compounds were added to the emulsion at 40° C. and the coatings were prepared and tested as described in Example 1, except that the additional gelatin used to prepare the coatings described in Table III was deionized gelatin.
as §2

[4] = Example 12: photographic sensitivity and fog, color format, blue sensitized emulsion T-2; conditions: for Photographic Sensitivity SWR2B: control=100
Experimental: The AgBrI tabular silver halide emulsion T-2 from Example 3 was optimally chemically and spectrally sensitized by adding NaSCN, 1.07 mmole of the blue sensitizing dye D-I per mole of silver, Na3 Au(S2 O3)2 ·2H2 O, Na2 S2 O3 ·5H2 O, and a benzothiazolium finish modifier and then subjecting the emulsion to a heat cycle to 65° C. The hydroxybenzene, 2,4-disulfocatechcol (HB3) at a concentration of 13×10^-3 mole/mole Ag was added to the emulsion melt before the start of the chemical sensitization procedure. This chemically sensitized emulsion was then used to prepare the experimental coating variations given in Table X. For all the variations in Table X, the antifoggant and stabilizer tetraazaindene (TAI) was added to the emulsion melt in an amount of 1.75 g/mole Ag before any further addenda. The fragmentable two-electron donors S-3, S-9, S-6, or S-8 were then added to the emulsion melt.
The melts were prepared for coating by adding additional water, deionized gelatin and coating surfactants. Coatings were prepared by combining the emulsion melts with a melt containing deionized gelatin and an aqueous dispersion of the cyan-forming color coupler CC-1 and coating the resulting mixture on acetate support. The final coatings contained Ag at 0.81 g/m^2, coupler at 1.61 g/m^2, and gelatin at 3.23 g/m^2. The coatings were overcoated with a protective layer containing gelatin at 1.08 g/m^2, coating surfactants, and a bisvinylsulfonylmethyl ether as a gelatin hardening agent. The structure of the color coupler CC-1 is given below: [drawing 120]
For photographic evaluation, each of the coating strips was exposed for 0.01 sec to a 3000K color temperature tungsten lamp filtered to give an effective color temperature of 5500K and further filtered through a Kodak Wratten filter number 2B, and a step wedge ranging in density from 0 to 4 density units in 0.20 density steps. This exposure gives light absorbed mainly by the blue sensitizing dye. The exposed film strips were developed for 31/4 minutes in Kodak C-41 color developer. SWR2B, relative sensitivity for this filtered exposure, was evaluated at a cyan density of 0.15 units above fog.
The AgBrI tabular emulsion T-2 as described in Example 3 was sensitized as described in Example 10 except that the hydroxybenzene HB3 was added at the completion of the chemical sensitization procedure. For all the variations in Table XII, the antifoggant and stabilizer tetraazaindene (TAI) was added to the emulsion melt in an amount of 1.75 g/mole Ag before any further addenda. The fragmentable electron donors PMT-1 or PMT-2 were then added to the emulsion melt. These compounds contain a phenylmercaptotetrazole as the silver halide adsorbing group. The melts were then coated and tested as described in Example 10.

CCSCCN(c1ccc(C)cc1)[C@@H](C)C(=O)[O-].[Na+] [Compound S-3, N-(4-Methylphenyl)-N-(2-ethylthio-ethyl)alanine sodium salt]
Fog ([1]; 0.011 x10^-3 mole/mole Ag): 0.05 | S365 ([1]; 0.011 x10^-3 mole/mole Ag): 118 | Fog ([1]; 0.022 x10^-3 mole/mole Ag): 0.08 | S365 ([1]; 0.022 x10^-3 mole/mole Ag): 132 | Fog ([1]; 0.044 x10^-3 mole/mole Ag): 0.22 | S365 ([1]; 0.044 x10^-3 mole/mole Ag): 129

CCSCCN(c1ccc(C)cc1)C(CC(=O)O)C(=O)O (stereo not drawn) [Compound S-8]
Fog ([1]; 0.022 x10^-3 mole/mole Ag): 0.08 | S365 ([1]; 0.022 x10^-3 mole/mole Ag): 126 | Fog ([1]; 0.07 x10^-3 mole/mole Ag): 0.13 | S365 ([1]; 0.07 x10^-3 mole/mole Ag): 135

Cc1ccc(N(CCC(=O)Nc2cccc(-n3nnnc3S)c2)C(C)C(=O)O)cc1 (stereo not drawn) [PMT-1]
Sλ ([2]; 0.0006 x10^-3 mole/mole Ag): 115 | Sλ ([2]; 0.0017 x10^-3 mole/mole Ag): 145 | Sλ ([2]; 0.0055 x10^-3 mole/mole Ag): 126 | Fog ([3]; 0.0006 x10^-3 mole/mole Ag, dye II 0.86 x10^-3): 0.14 | S365 ([3]; 0.0006 x10^-3 mole/mole Ag, dye II 0.86 x10^-3, dyed control 73): 97 | Fog ([3]; 0.0017 x10^-3 mole/mole Ag, dye II 0.86 x10^-3): 0.27 | S365 ([3]; 0.0017 x10^-3 mole/mole Ag, dye II 0.86 x10^-3, dyed control 73): 115 | Fog ([3]; 0.0055 x10^-3 mole/mole Ag, dye II 0.86 x10^-3): 0.53 | S365 ([3]; 0.0055 x10^-3 mole/mole Ag, dye II 0.86 x10^-3, dyed control 73): 102 | Fog ([3]; 0.006 x10^-3 mole/mole Ag, no dye): 0.08 | S365 ([3]; 0.006 x10^-3 mole/mole Ag, no dye, control=100): 195 | Fog ([3]; 0.017 x10^-3 mole/mole Ag, no dye): 0.13 | S365 ([3]; 0.017 x10^-3 mole/mole Ag, no dye, control=100): 191 | effect on dye desensitization [3]: effective in ameliorating dye desensitization | Fog ([4]; 0.5 x10^-6 mol/mol Ag): 0.09 | Photographic Sensitivity SWR2B ([4]; 0.5 x10^-6 mol/mol Ag): 138 | Fog ([4]; 1.5 x10^-6 mol/mol Ag): 0.15 | Photographic Sensitivity SWR2B ([4]; 1.5 x10^-6 mol/mol Ag): 166

CC(C(=O)O)N(CCC(=O)Nc1cccc(-n2nnnc2S)c1)c1ccccc1 (stereo not drawn) [PMT-2]
Sλ ([2]; 0.0005 x10^-3 mole/mole Ag): 123 | Sλ ([2]; 0.0016 x10^-3 mole/mole Ag): 145 | Sλ ([2]; 0.005 x10^-3 mole/mole Ag): 151 | Fog ([3]; 0.0005 x10^-3 mole/mole Ag, dye II 0.86 x10^-3): 0.13 | S365 ([3]; 0.0005 x10^-3 mole/mole Ag, dye II 0.86 x10^-3, dyed control 73): 102 | Fog ([3]; 0.0016 x10^-3 mole/mole Ag, dye II 0.86 x10^-3): 0.23 | S365 ([3]; 0.0016 x10^-3 mole/mole Ag, dye II 0.86 x10^-3, dyed control 73): 118 | Fog ([3]; 0.005 x10^-3 mole/mole Ag, dye II 0.86 x10^-3): 0.40 | S365 ([3]; 0.005 x10^-3 mole/mole Ag, dye II 0.86 x10^-3, dyed control 73): 118 | Fog ([3]; 0.005 x10^-3 mole/mole Ag, no dye): 0.06 | S365 ([3]; 0.005 x10^-3 mole/mole Ag, no dye, control=100): 191 | Fog ([3]; 0.016 x10^-3 mole/mole Ag, no dye): 0.08 | S365 ([3]; 0.016 x10^-3 mole/mole Ag, no dye, control=100): 186 | effect on dye desensitization [3]: effective in ameliorating dye desensitization | Fog ([4]; 0.5 x10^-6 mol/mol Ag): 0.09 | Photographic Sensitivity SWR2B ([4]; 0.5 x10^-6 mol/mol Ag): 141 | Fog ([4]; 1.4 x10^-6 mol/mol Ag): 0.10 | Photographic Sensitivity SWR2B ([4]; 1.4 x10^-6 mol/mol Ag): 166 | Fog ([4]; 4.5 x10^-6 mol/mol Ag): 0.16 | Photographic Sensitivity SWR2B ([4]; 4.5 x10^-6 mol/mol Ag): 191
